Reference: patent publication US10189845B2, “4,6-substituted-pyrazolo[1,5-a]pyrazines as janus kinase inhibitors” (ARRAY BIOPHARMA INC., priority 2014, dated 2019)
Read-outs that look alike come from different tables or passages of the source.

Legend:
Format in all cases: biochemical
Human Tyk2 kinase domain = Human Tyk2 kinase domain (Homo sapiens (Human), UniProt P29597); experiment: Tyk2 Inhibition Assay (Example A, Omnia kinase fluorescence peptide substrate assay); details: TYK2 Enzyme IC50 1 mM ATP, averaged IC50 ranges
Method in brief: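 Omnia Sox-peptide kinetic fluorescence assay (ex 360/em 485 nm, read every 50 s for 45 min) with 1 nM human Tyk2 kinase domain (aa 886–1187, His tag cleaved, baculovirus-expressed), 1 mM ATP, 8 μM Omnia Y12 peptide, in 25 mM HEPES pH 7.4, 10 mM MgCl2, 0.01% Triton X-100, 1 mM DTT, 2% DMSO. IC50 from 4-parameter logistic fit of percent of control.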

JAK1 = JAK1 (Homo sapiens (Human), UniProt P23458); experiment: JAK1 Inhibition Assay (Example B, Omnia kinase fluorescence peptide substrate assay)
Method in brief: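 Recombinant human JAK1 (12.5 nM) with 1 mM ATP and 8 μM Omnia Y12 Sox-peptide in 25 mM HEPES pH 7.4, 10 mM MgCl2, 0.01% Triton X-100, 1 mM DTT, 2% DMSO final. Phosphorylation read kinetically (ex 360/em 485 nm, 45 min); IC50 from 4-parameter fit of percent of control.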

JAK2 = JAK2 (Homo sapiens (Human), UniProt O60674); experiment: JAK2 Inhibition Assay (Example C, Omnia kinase fluorescence peptide substrate assay); details: JAK2 Enzyme IC50 1 mM ATP, averaged IC50 ranges
Method in brief: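 4 nM JAK2 with 1 mM ATP and 10 μM Omnia Y7 peptide in 25 mM HEPES pH 7.4, 10 mM MgCl2, 0.01% Triton X-100, 1 mM DTT, 2% DMSO. Sox fluorescence (ex 360/em 485 nm) read every 50 s for 45 min; IC50 from 4-parameter fit of percent of control.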

JAK3 = JAK3 (Homo sapiens (Human), UniProt P52333); experiment: JAK3 Inhibition Assay (Example D, Omnia kinase fluorescence peptide substrate assay)
Method in brief: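 Mixture held 2 nM JAK3, 1 mM ATP and 10 μM Omnia Y7 peptide in 25 mM HEPES pH 7.4, 10 mM MgCl2, 0.01% Triton X-100, 1 mM DTT, 2% DMSO final. Sox fluorescence (ex 360/em 485 nm) was read every 50 s for 45 min. IC50 came from a 4-parameter logistic fit of percent of control.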

Chain of Human Tyk2 kinase domain (P29597 886-1187): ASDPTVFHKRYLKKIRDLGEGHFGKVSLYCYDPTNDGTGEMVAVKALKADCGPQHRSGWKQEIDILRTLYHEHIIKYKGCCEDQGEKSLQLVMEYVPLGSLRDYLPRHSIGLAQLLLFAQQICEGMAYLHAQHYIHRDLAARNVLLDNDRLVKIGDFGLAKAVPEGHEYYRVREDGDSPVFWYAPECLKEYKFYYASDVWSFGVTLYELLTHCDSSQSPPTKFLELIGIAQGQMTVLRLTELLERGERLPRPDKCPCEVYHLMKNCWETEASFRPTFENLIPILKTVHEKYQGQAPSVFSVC
Chain of JAK3 (P52333 whole entry): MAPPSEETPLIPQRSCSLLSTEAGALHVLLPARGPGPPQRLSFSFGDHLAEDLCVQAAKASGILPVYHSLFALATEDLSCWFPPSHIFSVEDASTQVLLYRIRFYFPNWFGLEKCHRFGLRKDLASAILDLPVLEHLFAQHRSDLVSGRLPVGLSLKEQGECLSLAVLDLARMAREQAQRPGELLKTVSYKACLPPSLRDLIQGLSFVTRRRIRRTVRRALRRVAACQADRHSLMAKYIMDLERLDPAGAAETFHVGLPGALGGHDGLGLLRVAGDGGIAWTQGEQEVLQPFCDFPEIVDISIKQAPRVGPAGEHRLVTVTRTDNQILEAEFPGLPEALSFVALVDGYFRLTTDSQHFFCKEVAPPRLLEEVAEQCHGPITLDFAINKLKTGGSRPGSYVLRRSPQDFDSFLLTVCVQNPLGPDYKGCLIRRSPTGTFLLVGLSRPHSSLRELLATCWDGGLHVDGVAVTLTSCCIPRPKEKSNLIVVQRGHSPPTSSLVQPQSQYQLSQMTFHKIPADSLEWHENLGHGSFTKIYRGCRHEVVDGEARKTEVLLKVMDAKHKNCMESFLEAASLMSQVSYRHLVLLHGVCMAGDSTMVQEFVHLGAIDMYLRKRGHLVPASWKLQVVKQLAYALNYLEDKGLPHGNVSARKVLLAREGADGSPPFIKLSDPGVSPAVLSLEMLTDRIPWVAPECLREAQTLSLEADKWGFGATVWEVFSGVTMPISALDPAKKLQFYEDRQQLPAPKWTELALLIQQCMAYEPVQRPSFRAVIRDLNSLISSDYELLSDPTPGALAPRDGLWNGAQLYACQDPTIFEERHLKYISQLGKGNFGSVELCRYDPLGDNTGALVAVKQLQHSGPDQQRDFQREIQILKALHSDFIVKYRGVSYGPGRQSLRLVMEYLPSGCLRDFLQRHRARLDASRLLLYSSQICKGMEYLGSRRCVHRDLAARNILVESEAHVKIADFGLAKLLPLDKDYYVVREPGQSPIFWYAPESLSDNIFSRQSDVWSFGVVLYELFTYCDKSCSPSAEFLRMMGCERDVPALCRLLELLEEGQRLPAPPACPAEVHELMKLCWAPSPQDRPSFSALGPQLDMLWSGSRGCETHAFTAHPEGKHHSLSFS
Chain of JAK1 (P23458 whole entry): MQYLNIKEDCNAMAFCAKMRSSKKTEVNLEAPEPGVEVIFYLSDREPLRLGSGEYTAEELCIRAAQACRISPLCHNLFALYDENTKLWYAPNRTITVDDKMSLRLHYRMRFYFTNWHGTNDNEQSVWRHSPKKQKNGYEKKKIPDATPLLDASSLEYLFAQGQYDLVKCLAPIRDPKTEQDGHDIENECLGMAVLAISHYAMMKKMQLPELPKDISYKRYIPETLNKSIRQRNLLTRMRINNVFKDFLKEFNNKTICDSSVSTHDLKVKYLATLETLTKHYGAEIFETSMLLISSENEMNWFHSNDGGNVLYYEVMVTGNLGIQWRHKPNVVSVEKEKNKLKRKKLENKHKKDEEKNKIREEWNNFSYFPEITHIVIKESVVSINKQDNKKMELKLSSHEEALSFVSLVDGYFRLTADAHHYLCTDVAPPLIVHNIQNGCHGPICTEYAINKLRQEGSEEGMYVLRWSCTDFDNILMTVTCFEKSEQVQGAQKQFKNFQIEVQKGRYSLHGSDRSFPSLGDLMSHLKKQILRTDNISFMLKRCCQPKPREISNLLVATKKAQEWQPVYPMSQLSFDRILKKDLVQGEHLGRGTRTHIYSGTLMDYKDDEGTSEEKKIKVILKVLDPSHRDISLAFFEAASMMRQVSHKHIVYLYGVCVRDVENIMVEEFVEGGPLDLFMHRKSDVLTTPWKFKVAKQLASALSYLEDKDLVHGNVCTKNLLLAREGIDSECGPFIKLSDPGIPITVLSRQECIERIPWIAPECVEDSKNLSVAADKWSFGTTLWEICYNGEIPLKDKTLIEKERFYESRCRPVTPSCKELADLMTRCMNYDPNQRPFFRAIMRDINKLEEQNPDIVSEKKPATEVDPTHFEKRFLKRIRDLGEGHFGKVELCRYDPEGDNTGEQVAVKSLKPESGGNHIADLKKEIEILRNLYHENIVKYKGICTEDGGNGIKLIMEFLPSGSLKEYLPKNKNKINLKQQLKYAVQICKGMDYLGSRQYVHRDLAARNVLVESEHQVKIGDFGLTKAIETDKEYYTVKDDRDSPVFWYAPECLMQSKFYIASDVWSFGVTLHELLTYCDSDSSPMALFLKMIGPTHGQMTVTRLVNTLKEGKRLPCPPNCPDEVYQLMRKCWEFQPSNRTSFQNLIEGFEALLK
Chain of JAK2 (O60674 whole entry): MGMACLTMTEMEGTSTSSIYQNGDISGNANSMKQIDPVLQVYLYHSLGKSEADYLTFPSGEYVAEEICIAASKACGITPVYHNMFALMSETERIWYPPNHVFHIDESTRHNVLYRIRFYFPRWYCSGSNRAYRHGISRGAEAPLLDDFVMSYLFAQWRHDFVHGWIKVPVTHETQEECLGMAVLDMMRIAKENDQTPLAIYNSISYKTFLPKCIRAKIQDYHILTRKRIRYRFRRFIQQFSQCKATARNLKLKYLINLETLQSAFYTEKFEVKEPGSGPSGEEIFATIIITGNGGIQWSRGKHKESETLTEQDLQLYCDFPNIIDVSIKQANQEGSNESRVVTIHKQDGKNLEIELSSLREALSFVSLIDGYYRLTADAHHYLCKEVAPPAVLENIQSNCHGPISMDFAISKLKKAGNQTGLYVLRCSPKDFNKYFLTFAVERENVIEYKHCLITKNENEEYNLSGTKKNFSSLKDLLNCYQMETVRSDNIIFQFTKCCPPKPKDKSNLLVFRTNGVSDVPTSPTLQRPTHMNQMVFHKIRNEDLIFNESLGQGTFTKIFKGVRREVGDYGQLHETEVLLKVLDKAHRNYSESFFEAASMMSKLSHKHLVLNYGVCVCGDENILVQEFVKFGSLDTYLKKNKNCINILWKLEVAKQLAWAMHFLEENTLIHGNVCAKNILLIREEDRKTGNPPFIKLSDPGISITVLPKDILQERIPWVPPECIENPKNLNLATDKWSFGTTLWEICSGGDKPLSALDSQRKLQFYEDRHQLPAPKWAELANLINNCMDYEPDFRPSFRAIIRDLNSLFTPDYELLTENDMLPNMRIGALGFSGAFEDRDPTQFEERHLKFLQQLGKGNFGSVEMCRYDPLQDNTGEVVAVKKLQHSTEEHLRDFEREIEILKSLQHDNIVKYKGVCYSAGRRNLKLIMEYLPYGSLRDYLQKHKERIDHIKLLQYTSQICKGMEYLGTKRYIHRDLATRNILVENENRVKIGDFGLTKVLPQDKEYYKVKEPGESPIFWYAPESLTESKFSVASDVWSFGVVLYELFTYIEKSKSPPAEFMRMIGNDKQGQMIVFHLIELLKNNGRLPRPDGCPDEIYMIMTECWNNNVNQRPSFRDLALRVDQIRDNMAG

Question: What does the source list for `OC[C@H](O)Cn1cc(-c2cn3nccc3c(-c3cnn(C(C4CC4)C4CC4)c3)n2)cn1` [Example 216, (R)-3-(4-(4-(1-(dicyclopropylmethyl)-1H-pyrazol-4-yl)pyrazolo[1,5-a]pyrazin-6-yl)-1H-pyrazol-1-yl)propane-1,2-diol]?
Answer: IC50 (Human Tyk2 kinase domain): 0.1 to 1 µM; IC50 (JAK1): 1 to 10 µM; IC50 (JAK2): 0.1 to 1 µM; IC50 (JAK3): 1 to 10 µM

Question: `C[C@@H]1CC[C@@H]1n1cc(-c2nc(-c3cnn(C[C@@H](O)CO)c3)cn3nccc23)cn1` [Example 217, (R)-3-(4-(4-(1-(cis-2-methylcyclobutyl)-1H-pyrazol-4-yl)pyrazolo[1,5-a]pyrazin-6-yl)-1H-pyrazol-1-yl)propane-1,2-diol] was tested. Which IC50 (Human Tyk2 kinase domain) did it give?
Answer: The IC50 was 0.1 to 1 µM.

Question: And the IC50 (JAK1; JAK1 Enzyme IC50 1 mM ATP, 1 mM ATP, averaged IC50 ranges)?
Answer: The IC50 was 1 to 10 µM.

Question: And the IC50 (JAK2)?
Answer: Its IC50 is 0.1 to 1 µM.

Question: And the IC50 (JAK3)?
Answer: The IC50 was 1 to 10 µM.

Question: How did the IC50 (Human Tyk2 kinase domain) turn out when `CC[C@H](C1CC1)n1cc(-c2nc(-c3cnn(C[C@H](C)O)c3)cn3nccc23)cn1` [Example 218, (S)-1-(4-(4-(1-((R)-1-cyclopropylpropyl)-1H-pyrazol-4-yl)pyrazolo[1,5-a]pyrazin-6-yl)-1H-pyrazol-1-yl)propan-2-ol] was run?
Answer: Its IC50 is 0.01 to 0.1 µM.

Question: What about the IC50 (JAK1) of the same compound?
Answer: The IC50 was 0.1 to 1 µM.

Question: And the IC50 (JAK2)?
Answer: The IC50 was 0.01 to 0.1 µM.

Question: And the IC50 (JAK3)?
Answer: The IC50 was 1 to 10 µM.

Question: How did the IC50 (Human Tyk2 kinase domain) turn out when `CCC(CC)n1cc(-c2nc(-c3cnn(C[C@H]4CNCCO4)c3)cn3nccc23)cn1` [compound 128, (R)-2-((4-(4-(1-(pentan-3-yl)-1H-pyrazol-4-yl)pyrazolo[1,5-a]pyrazin-6-yl)-1H-pyrazol-1-yl)methyl)morpholine] was run?
Answer: Its IC50 is 0.1 to 1 µM.

Question: And the IC50 (JAK1)?
Answer: The IC50 was 1 to 10 µM.

Question: What about the IC50 (JAK2) of the same compound?
Answer: The IC50 was 0.1 to 1 µM.

Question: And the IC50 (JAK3)?
Answer: Its IC50 is 1 to 10 µM.

Question: Which IC50 (Human Tyk2 kinase domain) does the source give for `CCC(CC)n1cc(-c2nc(-c3cnn([C@H]4C[C@@H](CO)C4)c3)cn3nccc23)cn1` [compound 166, (cis-3-(4-(4-(1-(pentan-3-yl)-1H-pyrazol-4-yl)pyrazolo[1,5-a]pyrazin-6-yl)-1H-pyrazol-1-yl)cyclobutyl)methanol] here?
Answer: The IC50 was 0.01 to 0.1 µM.

Question: What about the IC50 (JAK1) of the same compound?
Answer: Its IC50 is 0.1 to 1 µM.

Question: And the IC50 (JAK2)?
Answer: Its IC50 is 0.01 to 0.1 µM.

Question: And the IC50 (JAK3)?
Answer: Its IC50 is 1 to 10 µM.

Question: What does the source list for `CCC(CC)n1cc(-c2nc(-c3cnn(C4CN(C(=O)CO)C4)c3)cn3nccc23)cn1` [compound 174, 2-hydroxy-1-(3-(4-(4-(1-(pentan-3-yl)-1H-pyrazol-4-yl)pyrazolo[1,5-a]pyrazin-6-yl)-1H-pyrazol-1-yl)azetidin-1-yl)ethanone]?
Answer: IC50 (Human Tyk2 kinase domain): 0.01 to 0.1 µM; IC50 (JAK1): 0.1 to 1 µM; IC50 (JAK2): 0.01 to 0.1 µM; IC50 (JAK3): 1 to 10 µM
